Several values for one entry are separate records, joined by “and”; a condition that tells them apart may be missing. Equal values may be shown once. Inconclusive results and toxic doses are left out. The calls were made as follows: active = survival T/C of 150% or more; inactive = T/C below 125% in these data.
System: P388 leukemia ip, CD2F1 mice, survival T/C
Experiment: NCI In Vivo Anticancer Drug Screen. Data for tumor model P388 Leukemia (intraperitoneal) in CD2F1 (CDF1) mice
Conditions: endpoint: median survival time, higher = longer survival
Summary of the method: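 Mice carrying the transplanted tumor received test compound or vehicle. Survival was recorded in each group, and the value is the treated-group measurement divided by that of the vehicle-treated control group.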

[1] = dose: 100.0 mg/kg/injection, schedule: Q01DX001 (ip), vehicle: Klucel (hydroxypropylcellulose) (HPC)
[2] = dose: 200.0 mg/kg/injection, schedule: Q01DX001 (ip), vehicle: Klucel (hydroxypropylcellulose) (HPC)
[3] = dose: 400.0 mg/kg/injection, schedule: Q01DX001 (ip), vehicle: Klucel (hydroxypropylcellulose) (HPC)
[4] = dose: 50.0 mg/kg/injection, schedule: Q01DX005 (ip), vehicle: Klucel (hydroxypropylcellulose) (HPC)
[5] = dose: 100.0 mg/kg/injection, schedule: Q01DX005 (ip), vehicle: Klucel (hydroxypropylcellulose) (HPC)
[6] = dose: 200.0 mg/kg/injection, schedule: Q01DX005 (ip), vehicle: Klucel (hydroxypropylcellulose) (HPC)
[7] = dose: 100.0 mg/kg/injection, schedule: Q01DX001 (ip), vehicle: saline with Tween-80
[8] = dose: 200.0 mg/kg/injection, schedule: Q01DX001 (ip), vehicle: saline with Tween-80
[9] = dose: 100.0 mg/kg/injection, schedule: Q04DX003 (ip), vehicle: saline with Tween-80
[10] = dose: 400.0 mg/kg/injection, schedule: Q04DX003 (ip), vehicle: saline with Tween-80
[11] = dose: 200.0 mg/kg/injection, schedule: Q04DX003 (ip), vehicle: saline with Tween-80

Measured: T/C

C/C=C(/C)C(=O)O[C@@H]1c2c(C)coc2C(=O)[C@@]2(OC(C)=O)CCC[C@@](C)(O)[C@@]12C
inactive: dose: 3.25 mg/kg/injection, schedule: Q01DX005 (ip), vehicle: saline + alcohol 110 % of control | dose: 6.5 mg/kg/injection, schedule: Q01DX005 (ip), vehicle: saline + alcohol 96 % of control | dose: 13.0 mg/kg/injection, schedule: Q01DX005 (ip), vehicle: saline + alcohol 91 % of control | dose: 26.0 mg/kg/injection, schedule: Q01DX005 (ip), vehicle: saline + alcohol 93 % of control

Cc1cc(Cl)ccc1OCC1OC(=O)C(C)(C)O1 (stereo not given)
inactive: dose: 50.0 mg/kg/injection, schedule: Q01DX009 (ip), vehicle: Klucel (hydroxypropylcellulose) (HPC) 100 % of control | dose: 100.0 mg/kg/injection, schedule: Q01DX009 (ip), vehicle: Klucel (hydroxypropylcellulose) (HPC) 100 % of control | dose: 200.0 mg/kg/injection, schedule: Q01DX009 (ip), vehicle: Klucel (hydroxypropylcellulose) (HPC) 101 % of control

CC(Br)C(C)(C)OO (stereo not given)
inactive: [1] 101 % of control | [2] 95 % of control | [3] 100 % of control

CN1/C(=C2\C=CC=C\C2=N/S(=O)(=O)c2ccccc2)Sc2ccccc21
inactive: dose: 100.0 mg/kg/injection, schedule: Q04DX003 (ip), vehicle: saline 104 % of control | dose: 200.0 mg/kg/injection, schedule: Q04DX003 (ip), vehicle: saline 99 % of control | dose: 400.0 mg/kg/injection, schedule: Q04DX003 (ip), vehicle: saline 94 % of control

CCCC1=CC(C)(C)CC(C)=C1 (tested in a mixture with another compound)
inactive: dose: 50.0 mg/kg/injection, schedule: Q01DX009 (ip), vehicle: saline sonified 95 % of control | dose: 100.0 mg/kg/injection, schedule: Q01DX009 (ip), vehicle: saline sonified 95 % of control | dose: 200.0 mg/kg/injection, schedule: Q01DX009 (ip), vehicle: saline sonified 90 % of control

CC1(C)N=C(N)N=C(N)N1c1cccc(CCCCc2ccc(S(=O)(=O)F)cc2)c1
inactive: dose: 25.0 mg/kg/injection, schedule: Q04DX003 (ip), vehicle: saline 110 % of control

O=C1c2ccccc2S(=O)(=O)N1Cc1ccccc1CN1C(=O)c2ccccc2S1(=O)=O
inactive: [4] 92 % of control | [5] 89 % of control | [6] 89 % of control

Cc1ccc(C2N(CCN3C(=O)CS(=O)(=O)C3c3ccc(C)s3)C(=O)CS2(=O)=O)s1 (stereo not given)
inactive: [7] 101 % of control | dose: 100.0 mg/kg/injection, schedule: Q04DX002 (ip), vehicle: saline with Tween-80 97 % of control | [8] 94 % of control | dose: 200.0 mg/kg/injection, schedule: Q04DX002 (ip), vehicle: saline with Tween-80 87 % of control | dose: 400.0 mg/kg/injection, schedule: Q01DX001 (ip), vehicle: saline with Tween-80 91 % of control

CC(C)Cn1cnc2c(=S)nc(N)[nH]c21
inactive: dose: 8.0 mg/kg/injection, schedule: Q01DX009 (ip), vehicle: saline with Tween-80 95 % of control | dose: 16.0 mg/kg/injection, schedule: Q01DX009 (ip), vehicle: saline with Tween-80 100 % of control | dose: 32.0 mg/kg/injection, schedule: Q01DX009 (ip), vehicle: saline with Tween-80 100 % of control | dose: 64.0 mg/kg/injection, schedule: Q01DX009 (ip), vehicle: saline with Tween-80 90 % of control | [9] 109 % of control | dose: 264.0 mg/kg/injection, schedule: Q04DX003 (ip), vehicle: saline with Tween-80 100 % of control | [10] 112 % of control | dose: 600.0 mg/kg/injection, schedule: Q04DX003 (ip), vehicle: saline with Tween-80 116 % of control

N#Cc1c(-c2cccn(-c3ccccc3)c2=O)cc(-c2ccccc2)[nH]c1=O
inactive: [4] 88 % of control | [5] 89 % of control | [6] 110 % of control

NC(=O)Cn1ccnc1[N+](=O)[O-]
inactive: dose: 12.5 mg/kg/injection, schedule: Q01DX009 (ip), vehicle: water 93 % of control | dose: 25.0 mg/kg/injection, schedule: Q01DX009 (ip), vehicle: water 99 % of control | dose: 50.0 mg/kg/injection, schedule: Q01DX009 (ip), vehicle: water 90 % of control | dose: 100.0 mg/kg/injection, schedule: Q01DX009 (ip), vehicle: water 118 % of control | dose: 200.0 mg/kg/injection, schedule: Q01DX009 (ip), vehicle: water 107 % of control

CN=NN/C1=C/CCCCCC1
inactive: dose: 15.0 mg/kg/injection, schedule: Q01DX005 (ip), vehicle: Klucel + Tween-80 105 % of control | dose: 30.0 mg/kg/injection, schedule: Q01DX005 (ip), vehicle: Klucel + Tween-80 113 % of control | dose: 60.0 mg/kg/injection, schedule: Q01DX005 (ip), vehicle: Klucel + Tween-80 111 % of control and 117 % of control

CCOC(=O)C(Cc1c[nH]c2ccccc12)(NC(C)=O)C(=O)OCC
inactive: [9] 100 % of control | [11] 100 % of control | [10] 100 % of control

O=C1CC2CCC(C1)N2C(=O)Oc1ccccc1
inactive: [1] 101 % of control | [2] 93 % of control | [3] 92 % of control

CN(C)c1ccc(P(=O)(O)O)c(Cl)c1
inactive: [1] 99 % of control | [2] 96 % of control | [3] 96 % of control

CCn1c2ccccc2c2cc(NC(=S)NC(=O)c3cccs3)ccc21
inactive: dose: 6.25 mg/kg/injection, schedule: Q01DX005 (ip), vehicle: saline with Tween-80 93 % of control | dose: 12.5 mg/kg/injection, schedule: Q01DX005 (ip), vehicle: saline with Tween-80 86 % of control | dose: 25.0 mg/kg/injection, schedule: Q01DX005 (ip), vehicle: saline with Tween-80 93 % of control | dose: 100.0 mg/kg/injection, schedule: Q01DX005 (ip), vehicle: saline with Tween-80 90 % of control | dose: 200.0 mg/kg/injection, schedule: Q01DX005 (ip), vehicle: saline with Tween-80 92 % of control

CC(C)C(=NC1CCCCC1)NC(C)(C)C
inactive: dose: 50.0 mg/kg/injection, schedule: Q01DX009 (ip), vehicle: saline with Tween-80 93 % of control | dose: 100.0 mg/kg/injection, schedule: Q01DX009 (ip), vehicle: saline with Tween-80 99 % of control

N#Cc1c(C(=O)NN)c2c(-c3ccccc3)n[nH]c(=O)c2[nH]c1=O
inactive: [7] 100 % of control | [8] 91 % of control

CCC(C)(C)N=C(NC(=O)C(F)(F)F)Nc1cccnc1
inactive: [9] 93 % of control | [11] 94 % of control

CNCCC(Oc1ccccc1OC)c1ccccc1 (stereo not given)
inactive: dose: 12.5 mg/kg/injection, schedule: Q04DX002 (ip), vehicle: saline with Tween-80 106 % of control | dose: 25.0 mg/kg/injection, schedule: Q04DX002 (ip), vehicle: saline with Tween-80 100 % of control | dose: 25.0 mg/kg/injection, schedule: Q04DX002 (ip), vehicle: saline 113 % of control | dose: 50.0 mg/kg/injection, schedule: Q04DX002 (ip), vehicle: saline with Tween-80 99 % of control and 98 % of control | dose: 50.0 mg/kg/injection, schedule: Q04DX002 (ip), vehicle: saline 103 % of control

COc1cc(CC2c3cc(OC)c(OC)cc3CCN2C)c(Oc2cc3c(cc2OC)-c2c(OC)c(OC)c(OC)c4c2C(C3)N(C)CC4)cc1OC (stereo not given)
inactive: dose: 37.5 mg/kg/injection, schedule: Q01DX009 (ip), vehicle: Klucel (hydroxypropylcellulose) (HPC) 102 % of control | dose: 75.0 mg/kg/injection, schedule: Q01DX009 (ip), vehicle: Klucel (hydroxypropylcellulose) (HPC) 88 % of control | dose: 150.0 mg/kg/injection, schedule: Q01DX009 (ip), vehicle: Klucel (hydroxypropylcellulose) (HPC) 94 % of control

CN1C(=O)/C(=C2\Sc3ccccc3NC2=O)SC1=S
inactive: dose: 50.0 mg/kg/injection, schedule: Q04DX003 (ip), vehicle: saline with Tween-80 92 % of control | [9] 95 % of control | [11] 102 % of control
